The compounds below were run against T1, human ALK5 (Homo sapiens, UniProt P36897) (assay: ADP-GLO Kinases assay of ALK5 enzymatic activity). Conditions: purified recombinant human ALK5, TGFβ1 peptide substrate, pIC50 converted to pKi by Cheng-Prusoff, high ATP protocol (15 μM) for very potent compounds, 25° C.
T1 construct: human ALK5 (recombinant TGF β1 N-term GST-tagged, 80-end); GST (N); purchased
T1 sequence (P36897 80-503 limits assumed): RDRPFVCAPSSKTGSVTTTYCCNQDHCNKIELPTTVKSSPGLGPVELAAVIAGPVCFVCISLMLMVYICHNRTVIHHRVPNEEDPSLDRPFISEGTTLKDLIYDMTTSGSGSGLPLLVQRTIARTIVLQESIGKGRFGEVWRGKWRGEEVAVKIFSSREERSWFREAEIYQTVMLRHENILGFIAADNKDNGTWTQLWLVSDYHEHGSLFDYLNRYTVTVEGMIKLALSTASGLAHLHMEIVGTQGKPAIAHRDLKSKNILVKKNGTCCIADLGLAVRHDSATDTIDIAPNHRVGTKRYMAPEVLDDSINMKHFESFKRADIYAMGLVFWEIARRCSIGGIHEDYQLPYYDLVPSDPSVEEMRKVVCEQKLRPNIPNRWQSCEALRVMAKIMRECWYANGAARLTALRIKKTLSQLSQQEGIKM
Type: biochemical
Summary of the method: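 Purified ALK5 preincubated 15 min with compound, then reacted with substrate and ATP; ADP formed read by ADP-Glo luminescence after 120 min or 60 min reaction, all steps at 25° C. 11-point concentration-response; pIC50 converted to pKi via Cheng-Prusoff.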

| SMILES | Ki [pM] |
| --- | --- |
| CN1CCN(CCC(=O)Nc2cc(Nc3cc(-c4cc(Cl)ccc4F)nnc3S)ccn2)CC1 [Example 179, N-(4-{[6-(5-chloro-2-fluorophenyl)-3-sulfanylpyridazin-4-yl]amino}pyridin-2-yl)-3-(4-methylpiperazin-1-yl)propanamide] | 126 to 316 |
| O=C(Nc1cc(Nc2cc(-c3cc(Cl)ccc3F)nnc2SCCO)ncn1)[C@H]1C[C@@H](N2CCN(C3CC3)CC2)C1 [Example 181, Cis N-(6-{[6-(5-chloro-2-fluorophenyl)-3-[(2-hydroxyethyl)sulfanyl]pyridazin-4-yl]amino}pyrimidin-4-yl)-3-(4-cyclopropylpiperazin-1-yl)cyclobutane-1-carboxamide] | ≤ 100 |
| Cc1oc(=O)oc1CSc1nnc(-c2cc(Cl)ccc2F)cc1Nc1ccnc(NC(=O)CCN2CCN(C)CC2)c1 [Example 190, N-(4-{[6-(5-chloro-2-fluorophenyl)-3-{[(5-methyl-2-oxo-2H-1,3-dioxol-4-yl)methyl]sulfanyl}pyridazin-4-yl]amino}pyridin-2-yl)-3-(4-methylpiperazin-1-yl)propanamide] | ≤ 100 |
| C[C@@H]1CN(CC23CC(C(=O)Nc4cc(Nc5cc(-c6cc(Cl)ccc6F)nnc5SCCO)ccn4)(C2)C3)C[C@H](C)N1 [Example 191, N-(4-{[6-(5-chloro-2-fluorophenyl)-3-[(2-hydroxyethyl)sulfanyl]pyridazin-4-yl]amino}pyridin-2-yl)-3-[(3,5-dimethylpiperazin-1-yl)methyl]bicyclo[1.1.1]pentane-1-carboxamide] | 126 to 316 |
| C[C@@H]1CN(CC(=O)Nc2cc(Nc3cc(-c4cc(Cl)ccc4F)nnc3SCCO)ccn2)C[C@H](C)N1 [Example 193, N-(4-{[6-(5-chloro-2-fluorophenyl)-3-[(2-hydroxyethyl)sulfanyl]pyridazin-4-yl]amino}pyridin-2-yl)-2-(3,5-dimethylpiperazin-1-yl)acetamide] | ≤ 100 |
| CN1CCN(CCC(=O)Nc2cc(Nc3cc(-c4cc(Cl)ccc4F)nnc3SCCOCCO)ccn2)CC1 [Example 194, N-(4-{[6-(5-chloro-2-fluorophenyl)-3-{[2-(2-hydroxyethoxy)ethyl]sulfanyl}pyridazin-4-yl]amino}pyridin-2-yl)-3-(4-methylpiperazin-1-yl)propanamide] | ≤ 100 |

More lines, now with the values ahead:

| Ki [pM] | SMILES |
| --- | --- |
| ≤ 100 | C[C@@H]1CN(CCC(=O)Nc2cc(Nc3cc(-c4cc(Cl)ccc4F)nnc3SCCO)ccn2)C[C@H](C)N1 [Example 178, N-(4-{[6-(5-chloro-2-fluorophenyl)-3-[(2-hydroxyethyl)sulfanyl]pyridazin-4-yl]amino}pyridin-2-yl)-3-(3,5-dimethylpiperazin-1-yl)propanamide] |
| ≤ 100 | CN1CCN(CC23CC(C(=O)Nc4cc(Nc5cc(-c6cc(Cl)ccc6F)nnc5SCCO)ccn4)(C2)C3)CC1 [Example 180, N-(4-{[6-(5-chloro-2-fluorophenyl)-3-[(2-hydroxyethyl)sulfanyl]pyridazin-4-yl]amino}pyridin-2-yl)-3-[(4-methylpiperazin-1-yl)methyl]bicyclo[11.1.1]pentane-1-carboxamide] |
| 126 to 316 | CN1CCN(CC23CC(C(=O)Nc4cc(Nc5cc(-c6cc(Cl)ccc6F)nnc5SCCO)ncn4)(C2)C3)CC1 [Example 182, N-(6-{[6-(5-chloro-2-fluorophenyl)-3-[(2-hydroxyethyl)sulfanyl]pyridazin-4-yl]amino}pyrimidin-4-yl)-3-[(4-methylpiperazin-1-yl)methyl]bicyclo[1.1.1]pentane-1-carboxamide] |
| 126 to 316 | O=C(Nc1cc(Nc2cc(-c3cc(Cl)ccc3F)nnc2SCCO)ccn1)C12CC(CN3CCN(C4CC4)CC3)(C1)C2 [Example 183, N-(4-{[6-(5-chloro-2-fluorophenyl)-3-[(2-hydroxyethyl)sulfanyl]pyridazin-4-yl]amino}pyridin-2-yl)-3-[(4-cyclopropylpiperazin-1-yl)methyl]bicyclo[1.1.1]pentane-1-carboxamide] |

Reference: patent US20250011299A1, “PYRIDAZINYL AMINO DERIVATIVES AS ALK5 INHIBITORS” (CHIESI FARMACEUTICI S.P.A., priority 2021, published 2025)
